The source of these data is patent publication US8580769B2, “Treatment of obesity, metabolic syndrome, and diabetes with protein kinase C inhibitors” (The United States of America as represented by the …, priority 2011, dated 2013).

The subject of one data set is aPKC. The experiment in a line: tissue aPKC activity in Het-MλKO mice. It counts as in vivo, mouse. The following applies: for aPKC activation in adipose tissue / aPKC activation in muscle: 7-day treatment s.c. (ATM 60 mg/kg; ICAPP 0.4 mg/kg). The text has this:
In Vivo Mouse Studies: Male wild type (WT) and heterozygous muscle-specific PKC-λ knockout (Het-MλKO) mice were generated as described (Farese et al., J. Clin. Invest. 117:2289-2301, 2007) and used at 6-12 months of age, when the O/MS/T2DM phenotype in MλKO mice is well-developed. Mice were housed in a temperature-controlled environment with alternating 12-hour light and dark cycles, and fed ad libitum with standard chow (Harlan Teklad 20/18 with 5% fat, (10% of calories from fat)). All experimental procedures in mice were approved by the Institutional Animal Care and Use Committees of the Roskamp Institute and the University of South Florida College of Medicine, and the James A. Haley Veterans Administration Medical Center Research and Development Committee, Tampa, Fla.
(ICAPP; prepared by Southern Research, Birmingham, Ala.) at 0.4 mg/kg body weight. On the morning of the eighth day of inhibitor treatment, mice were injected intraperitoneally (IP) with 0.9% saline or saline containing 1 U insulin/kg body weight 15 minutes before sacrifice, an optimal time for studies of insulin stimulation of aPKC and Akt in liver, muscle and adipose tissues (Standaert et al., J. Biol. Chem. 279:24929-24934, 2004; Sajan et al., J. Lipid Res. 50:1133-1145, 2009; Sajan et al., Diabetologia 52:1197-1207, 2009; Farese et al., J. Clin. Invest. 117:2289-2301, 2007). After killing, blood, liver, quadriceps muscle and abdominal adipose tissues were rapidly removed and homogenized in buffer with a POLYTRON® homogenizer.
(§1) Tissue and Immunoprecipitate Preparations: As previously described (Standaert et al., J. Biol. Chem. 279:24929-24934, 2004; Sajan et al., J. Lipid Res. 50:1133-1145, 2009; Sajan et al., Diabetologia 52:1197-1207, 2009; Farese et al., J. Clin. Invest. 117:2289-2301, 2007) hepatocytes and tissues from in vivo experiments were homogenized in ice-cold buffer containing 0.25 M sucrose, 20 mM Tris/HCl (pH 7.5), 2 mM EGTA, 2 mM EDTA, 1 mM phenylmethylsulfonyl fluoride (PMSF), 20 μg/ml leupeptin, 10 μg/ml aprotinin, 2 mM Na4P2O7, 2 mM Na3VO4, 2 mM NaF, and 1 μM microcystin. After centrifugation for 10 minutes at 700×g to remove unbroken cells, debris, nuclei, and floating fat, cell lysates were stored at −70° C. After addition of 1% TRITON® X-100, 0.6% Nonidet and 150 mM NaCl, lysates were cleared of insoluble materials by low-speed centrifugation and subsequently immunoprecipitated with antibodies that target: (a) aPKCs (rabbit polyclonal antiserum from Santa Cruz Biotechnologies (Santa Cruz, Calif.) that recognizes C-termini of both PKC-λ and PKC-ζ); and (b) Akt2 (Upstate Cell Signaling/Millipore, Billerica, Mass.). Immunoprecipitates were collected on Sepharose-AG beads (Santa Cruz Biotechnologies).
aPKCι Assays: aPKC enzyme activity was measured as previously described (Standaert et al., J. Biol. Chem. 279:24929-24934, 2004; Sajan et al., J. Lipid Res. 50:1133-1145, 2009; Sajan et al., Diabetologia 52:1197-1207, 2009; Farese et al., J. Clin. Invest. 117:2289-2301, 2007). […] After incubation, ^32P-labeled substrate was trapped on P-81 filter paper and counted. This assay reflects the specific activity of a constant amount of aPKC (even in Het-MλKO mice) that is immunoprecipitated by supplier-prescribed amounts of antiserum (Farese et al., J. Clin. Invest. 117:2289-2301, 2007; Beeson et al., Diabetes 52:1926-1934, 2003).

A further data set has as its system total (ι plus ζ) aPKC. The experiment in a line: aPKC activity and phosphorylation in intact human hepatocytes. Particulars: for phosphorylation of aPKC auto(trans)phosphorylation sites (p-threonine-555/560-PKC-ι/ζ): intact human hepatocytes. Format: cell-based.
Source text: Human cryo-preserved hepatocytes (70-90% viability) were obtained from the Zen-Bio Corp (Research Triangle Park, North Carolina). These hepatocytes were harvested after perfusion with collagenase-containing buffer of livers surgically removed from non-diabetic patients (2 females and 6 males; ages, 43-60 years, 51±3 (mean±SEM); BMI, 23-35, 30±2) and T2DM patients (2 females and 3 males, ages, 46-68 years, 60±4; BMI, 27±2; all insulin-requiring) who had been maintained as transplant donors, but were ultimately rejected for administrative reasons. To maximize the importance of comparative differences, hepatocytes from T2DM and non-diabetic patients, and of similar age and sex, were routinely incubated and assayed side-by-side.
After thawing, the hepatocytes were distributed (approximately 10^6 cells per 100 mm plate) and incubated approximately 16 hours overnight in Dulbecco's minimal essential medium containing 5% fetal calf serum, 100 units/ml sodium-penicillin, 100 μg/ml streptomycin-sulfate, 1 μM insulin and 2 μM dexamethasone. After washing, cells were incubated first for 2 hours in William's E medium (Sigma-Aldrich, St. Louis, Mo., catalog no. W1878) containing GLUTAMAX™ (Gibco/Invitrogen, Carlsbad, Calif.), 100 units/ml sodium-penicillin, 100 μg/ml streptomycin-sulfate, 10 μM insulin, 100 nM dexamethasone, and then for 2 hours in William's E medium containing 100 units/ml sodium penicillin, 100 μg/ml streptomycin-sulfate, 100 nM dexamethasone, 0.25 mg/ml transferrin, 0.25 μg/ml sodium selenite and 10 μM insulin. Cells were then washed and incubated for 3 hours in the same medium, but lacking insulin. Where indicated, […], […] After incubation, cells were sonicated in homogenizing buffer.
as §1
aPKCι Assays: aPKC enzyme activity was measured as previously described (Standaert et al., J. Biol. Chem. 279:24929-24934, 2004; Sajan et al., J. Lipid Res. 50:1133-1145, 2009; Sajan et al., Diabetologia 52:1197-1207, 2009; Farese et al., J. Clin. Invest. 117:2289-2301, 2007). […]

The mark [1] stands for this setting: Het-MλKO mice, s.c. once daily (ICAPP 0.4 mg/kg 7 days; ICAP 0.5 mg/kg 8 days).

Regarding `NC(=O)c1ncn([C@@H]2C[C@H](COP(=O)(O)O)[C@@H](O)[C@H]2O)c1N` [ICAPP, 1H-imidazole-4-carboxamide, 5-amino-1-[2,3-dihydroxy-4-[(phosphonooxy)methyl]cyclopentyl]-[1R-(1α,2β,3β,4α)]], in the data set on aPKC (Het-MλKO mice), the “aPKC activation in adipose tissue” value is “increased significantly or trended upward” and the “aPKC activation in muscle” value is “increased significantly or trended upward”. For the same compound, the “hepatic aPKC activity” value in the data set on aPKC (setting [1]) is on record as “diminished”. In the data set with total (ι plus ζ) aPKC (human hepatocytes), the “PDK1-dependent phosphorylation of activation loop sites of PKC-ι/ζ (threonine-403/410)” value was “did not inhibit”. The “basal immunoprecipitable aPKC activity” value with total (ι plus ζ) aPKC (human hepatocytes, basal (no insulin)) was “resistant”. Moreover, in the data set on total (ι plus ζ) aPKC, the “phosphorylation of aPKC auto(trans)phosphorylation sites (p-threonine-555/560-PKC-ι/ζ)” value is on record as “diminished”. In addition, in the data set with total (ι plus ζ) aPKC (non-diabetic human hepatocytes, 4 hours), the “inhibition of insulin-stimulated total (ι plus ζ) aPKC activity in intact human hepatocytes” value is recorded as “approximately 50%”.

In the case of `O=C([O-])CC([S][Au])C(=O)[O-]` (centres unmarked) [ATM, aurothiomalate, reference compound], in the data set with aPKC (Het-MλKO mice), the “aPKC activation in adipose tissue” value is on record as “increased significantly” and the “aPKC activation in muscle” value is “increased significantly”. In addition, in the data set on total (ι plus ζ) aPKC (human hepatocytes), the “total aPKC activity in intact hepatocytes” value was “diminished”. Besides, the “phosphorylation of aPKC auto(trans)phosphorylation sites (p-threonine-555/560-PKC-ι/ζ)” value in the data set on total (ι plus ζ) aPKC is reported as “diminished”.

With `NC(=O)c1ncn([C@@H]2C[C@H](CO)[C@@H](O)[C@H]2O)c1N` [ICAP, 1H-imidazole-4-carboxamide 5-amino-1-[2,3-dihydroxy-4-[hydroxymethyl]cyclopentyl]-[1R-(1α,2β,3β,4α)]], the “hepatic aPKC activity” value is “inhibited” in the data set on aPKC (setting [1]) and 1374 ± 128 cpm/immunoppt with aPKC (ICAP-treated Mλ-Het KO mice (n = 12), 0.5 mg/kg body weight/day x 8 days s.c., mean ± SEM). Moreover, the “insulin-provoked increase in aPKC activity” value in the data set with total (ι plus ζ) aPKC (non-diabetic human hepatocytes, 6 hours, 100 nM insulin, 100 nM ICAP) is reported as “inhibited”.
